Source: patent US7022720B2, “Synthetic diazonamides as novel anti-mitotic agents” (Board of Regents, The University of Texas System, priority 2001, dated 2006)
Where two headings read alike, the source gives them in different places.

Experiments:
OVCAR-3 cells [1] = experiment: In vitro cytotoxicity assay (Promega CellTiter-Glo) in OVCAR-3; format: cell-based, human
Method: A growth inhibition study was also conducted using OVCAR-3 (a human ovarian adenocarcinoma) cells. Human ovarian adenocarcinoma OVCAR-3 cells are treated with diazonamide and control compounds for 48 hours and evaluated for cell viability using the Promega CellTiter-Glo™ Assay (Promega, Madison, Wis.). This assay uses luciferase to measure ATP as indicator of metabolically active cells.

SK-MEL-5 cells = experiment: MTT assay in SK-MEL-5; format: cell-based, human; settings: SK-MEL-5, MTT, FIG. 13
From the text: This assay measures cellular viability and proliferation based on the ability of live cells to take up and cleave a tetrazolium salt to generate a colored product.

HCT-116 cells [2] = format: cell-based, human; settings: 30 nM, 12-48 hours, FIG. 14
Method: FACS Analysis was performed on HCT-116 cells to examine the effect of JL-9 on mitosis. 150,000 HCT-116 cells were incubated per well with media into six well tissue culture plates. Cells were allowed to adhere for 16–18 hours. Media containing 0.01% ethanol (vehicle control), 30 nanomolar (nM) taxol, 30 nM vinblastine and 30 nM JL-9 was added to cells and incubated for 12, 24, 36, or 48 hours. At these time points, cells were harvested with 0.25% trypsin 1 mM EDTA, and transferred to 1.5 ml Eppendorf tubes. Cells were pelleted and washed twice with 1×PBS. Cells were then fixed in −20° C. 100% ethanol and stored at 4° C. Cells were pelleted from 100% ethanol, washed once with 1×PBS, and treated with Vindelov's propidium iodide solution (50 ug/ml propidium iodide, 0.01 mM NaCl, 0.1% IPEGAL, 0.01 mg RNase) and 1 mg/ml RNAse for 30 minutes at 37° C. Propidium iodide is a fluorescent marker that binds to nucleotides. It can be used with FACS scan analysis to determine the ploidy of a population of cells. FACS scan analysis was performed using […] FACScan instrument. Data was analyzed using Cell Quest software.

OVCAR-3 cells [3] = experiment: Indirect immunofluorescence of tubulin cytoskeleton in OVCAR-3; format: cell-based, human; settings: OVCAR-3, 12 or 23 hours, FIGS. 15D and 15E
Method: Immunofluorescence was performed on JL-9, taxol, vinblastine, control-treated OVCAR-3 cells to examine their effects on tubulin cytoskeleton. Cells were grown on 2 cm glass cover slips in tissue culture wells. Media containing JL-9, vinblastine, or taxol was added at various concentrations and incubated for 12 or 23 hours. Hoescht […] nuclear dye was added directly to the media (1.5 ug/ml) and incubated at 37° C. for 30 minutes. Coverslips were washed 3× with 1×PBS and fixed for 10 minutes with −20C 100% methanol. Coverslips were washed 3× with 1×PBS/1% BSA and treated directly with a 1/2000 dilution of anti-α-tubulin antibody (mouse anti-human). Coverslips were washed 3× with 1×PBS/1% BSA and treated with 1/500 dilution of fluorescently conjugated goat anti-mouse secondary antibody (Alexa Fluor 488). Coverslips were washed 3× with 1×PBS/1% BSA and mounted on microscope slides using mounting media (Aqua Poly Mount). Images were obtained using Zeiss Axiovert 100M digital light and confocal microscopy.

BSC-1 cells = experiment: Immunofluorescence of alpha tubulin in BSC-1 cells after thymidine block; format: cell-based, African Green Monkey; settings: BSC-1, 100 nM, 12 hours after thymidine block, FIG. 16
Method: Immunofluorescence was also performed on JL-9, JL-10, taxol and vinblastine-treated BSC-1 cells subjected to thymidine block. BCS-1 African Green Monkey kidney cells were treated for 18 hours in culture medium containing 2 mM thymidine and then returned to normal medium containing 100 nM of taxol, vinblastine, JL-10 (control) or JL-9 for 12 hours. During the last 30 minutes, Hoecht's dye was added to 100 nM to stain chromosomes. Cells were fixed in cold methanol and stained with antibody specific for alpha tubulin. Images of the organization of microtubules in spindles were collected with a laser scanning confocal microscope using a single 488 nm excitation wavelength.

[4] = Comparison of synthesized compound with natural diazonamide (handling stability); format: physicochemical
From the text: Characteristics of synthesized diazonamide compound, JL-9, were compared to naturally occurring diazonamide. […] The process completes upon attempted preparative HPLC purification of 1b (FIG. 1) under conditions identical to those used to isolate natural (−)-diazonamide A. In addition, a second degradation pathway available in this series appears as a result of the cleavage of the strained macrolactam ring through diketopiperazine formation that involves the C37 amine and the C12 amide carbonyl.

HCT-116 cells [5] = settings: HCT-116 human colorectal carcinoma line; cited from earlier work

Compound	GI50 (OVCAR-3 cells [1]; Homo sapiens, OVCAR-3, 48 h) [nM]	cytotoxic and growth inhibitory effect (SK-MEL-5 cells)	cell cycle arrest (ploidy) (HCT-116 cells [2])	mitotic figures / spindle organization (BSC-1 cells)	also measured
CC(C)[C@H](O)C(=O)N[C@H]1Cc2ccc3c(c2)C24C5=C(N=C(O5)[C@H](C(C)C)NC1=O)c1nc(Cl)c(o1)-c1c(Cl)[nH]c5cccc(c15)-c1cccc2c1OC4O3 (stereo partly drawn) [JL-9]	16	potent cytotoxic and growth inhibitory effect	arrests HCT-116 cells in the tetraploid (4n) state	Mitotic figures were frequently found	fold more potent than JL-10 at inhibiting growth (OVCAR-3 cells [1]; OVCAR-3 in vitro): > 50 fold; potency relative to natural diazonamide A and paclitaxel (OVCAR-3 cells [1]; OVCAR-3 in vitro): equipotent to natural diazonamide A and paclitaxel; effect on tubulin cytoskeleton (OVCAR-3 cells [3]): aberrant effects on the cytoskeleton and formation of abnormal mitotic spindles; stability on handling [4]: susceptible to handling
CC(C)[C@H](N)C(=O)N[C@H]1Cc2ccc3c(c2)C24C5=C(N=C(O5)[C@H](C(C)C)NC1=O)c1nc(Cl)c(o1)-c1c(Cl)[nH]c5cccc(c15)-c1cccc2c1OC4O3 (stereo partly drawn) [JL-10]	845	inactive analogue	–	resembled the vehicle controls	–
CC(C)[C@H](O)C(=O)N[C@H]1Cc2ccc3c(c2)[C@]24C5=C(N=C(O5)[C@H](C(C)C)NC1=O)c1nc(Cl)c(o1)-c1c(Cl)[nH]c5cccc(c15)-c1cccc2c1N[C@@H]4O3 [natural diazonamide, diazonamide A, reference compound]	–	–	–	–	GI50 (OVCAR-3 cells [1]; OVCAR-3, 48 hours, CellTiter-Glo, read-out: GI50): 8 nM; GI50 (50% growth inhibitory concentration) (HCT-116 cells [5]): less than 15 ng/ml
CC(=O)O[C@H]1C(=O)[C@@]2(C)[C@H]([C@H](OC(=O)c3ccccc3)[C@]3(O)C[C@H](OC(=O)[C@H](O)[C@@H](NC(=O)c4ccccc4)c4ccccc4)C(C)=C1C3(C)C)[C@]1(OC(C)=O)CO[C@@H]1C[C@@H]2O [paclitaxel, reference compound]	–	–	arrests HCT-116 cells in the tetraploid (4n) state	Mitotic figures were frequently found	GI50 (OVCAR-3 cells [1]; Homo sapiens, OVCAR-3, 48 hours, CellTiter-Glo, read-out: GI50): 8 nM
CC[C@]1(O)C[C@@H]2CN(CCc3c([nH]c4ccccc34)[C@@](C(=O)OC)(c3cc4c(cc3OC)N(C)[C@H]3[C@@](O)(C(=O)OC)[C@H](OC(C)=O)[C@]5(CC)C=CCN6CC[C@]43[C@@H]65)C2)C1 [vinblastine, reference compound]	–	–	arrests HCT-116 cells in the tetraploid (4n) state	Mitotic figures were frequently found	–
